# Experiments:
# HIV-1/Ba-L = assay: Antiviral activity in MDM cultures infected with HIV-1/Ba-L (RT activity in culture supernatants); format: cell-based; settings: for viral replication (in words): treatment of MDMs 7 days after infection
# Experimental: A million monocytes in 1 ml of culture medium A are distributed in each well of a 48 well plate (Becton-Dickinson). The monocytes are left to differentiate into macrophages for 7 days. The macrophages thus differentiated are maintained in culture in medium A.
# The MDMs were infected with the reference isolate with macrophage tropism, HIV-1/Ba-L. The PBMCs and the PBLs were infected with the reference isolate with lymphocyte tropism HIV-1 LAI. The viral stock were formed by amplifying these strains in vitro using umbilical blood mononucleated cells (UBM(s) preactivated with 1 μg/ml of PHA-P and cultured in medium A supplemented by 20 IU/ml of IL-2. In order to remove the soluble factors, such as cytokines, the culture supernatants were ultracentrifuged at 360 000 g for 5 min, and the pellets were resuspended in RPMI 1640. The viral stocks thus formed were subsequently titred using PBMCs activated with PHA-P. The TCID50s (50% Tissue Culture Infectious Dose) were calculated using the Kärber formula.
# A million MDMs were infected with 10 000 TCID50s of the HIV-1/Ba-L strain. This amount of virus corresponds to a multiplicity of infection (m.o.i.) equal to 0.01. The excess of virus is removed 24 h after by washing with cells using RPMI 1640. The PBLs and the PBMCs were infected with 10 000 TCID50s of the HIV-1 LAI strain (moi=0.01). The cells were washed at the end of the second day of infection.
# The viral replication is measured by assaying the RT activity in the culture supernatants according to the technique described by F. Rey et al. (Biochem. Biophys. Res. Comm., 1984, 121, 126-133). The radioactivity incorporated during the extension of the complementary strand of a poly-rA synthetic matrix in the presence of an oligo-dT12-18 primer and of a radiolabeled substrate, [^3H-methyl]thymidine-5′-triphosphate ([^3H]TPP), makes it possible to assay the enzymatic activity of RT. 400 μl of supernatant are ultracentrifuged at 360 000 g for 5 min. The RT is released by lysis of the viral pellet in 20 μl of NTE-Triton (100 mM NaCl, 10 mM Tris, 1 mM EDTA, 0.1% Triton X-100). These 20 μl are subsequently incubated with 40 μl of the following reaction mixture: 62.5 mM Tris, pH 7.8; 25 mM KCl; 6.25 mM MgCl2; 1.25 mM dithiothreitol (DTT); 2.5×10^−3 ODU oligo-dT12-18 and poly-rA, 5.55×10^−3 TBq {^3H]TTP. After one hour at 37° C., the enzymatic reaction is halted and the newly synthesized strands are precipitated for 20 min at 4° C. by the addition of 1 ml of sodium pyrophosphate (NaPP), of 50 μl of yeast DNA (0.1 mg/ml in 5% trichluoroacetic acid (TCA)), and of 4 ml of 20% TCA. The mixture is filtered using a cellulose acetate membrane (Millipore) which retains the radiolabeled poly-dT chains. The filter is washed using 20 ml of 5% TCA and the residual water is removed by addition of 25 μl of 70% ethanol. The filter is dried in an oven for 10 minutes at 80° C. and is then introduced into vials containing 8 ml of liquid scintillant. The β radioactivity is quantified by means of a scintillation counter (Packard Bell). The results are expressed in pM of [^3H]-TMP incorporated/h/ml of supernatant or, more simply, in cpm/h/ml.
# The 50% effective doses (ED50) are calculated from the cumulative RT activities using the software “Dose-effects analysis with microcomputers” developed by J. Chou & T. C. Chou.
# GSH [1] = assay: Intracellular GSH in MDMs stimulated with LPS and IFN-γ; format: cell-based, human; settings: MDMs stimulated with LPS (1 μg/ml) and IFN-γ (100 IU/ml)
# Experimental: The intracellular GSH was assayed by means of the assay kit sold by Cayman. This method for assaying glutathione is an adaptation of that described by O. W. Griffith et al. (1980). Tumor necrosis factor (TNF-α), like the oxygen-comprising or nitrogen-comprising radical components, plays a major role in the apoptotic processes associated with infection the HIV. Furthermore, the radical components can promote the synthesis of this proinflammatory cytokine. For this reason, the effects of I-152 in decreasing the synthesis of TNF-α were thus looked for in MDMs stimulated by a bacterial lipopolysaccharide and interferon (IFN-γ).
# MDMs = assay: Cytotoxicity with respect to MDMs (neutral red); format: cell-based, human; settings: MDMs
# Experimental: These tests are carried out systematically in parallel with the evaluation of the antiviral activity. In view of the oxidation/reduction capacity of the molecules tested, the test with the tetrazolium salt, which measures the activity of mitochondrial dehydrogenases, cannot be used.
# Neutral red (NR) is a vital dye which makes it possible to measure the viability of adherent cells, such as MDMs. 600 μl of culture supernatant are removed and replaced with 400 μl of an NR solution (0.001% m/v in phosphate buffer, PBS, Boehringer Mannheim), filtered at 0.45 μm. The cells were incubated for 1 h at 37° C. and are subsequently washed (2×1 ml of PBS). The cells are then lysed at −20° C. with 200 μl of a 50% ethanol mixture comprising 1% of glacial acetic acid. The OD is measured twice with 100 μl of solution using a spectrophotometer.
# [2] = test system: total glutathione (GSH+GSSG); assay: Total intracellular glutathione in quiescent PBMCs; format: cell-based, human
# GSH [3] = assay: Intracellular GSH in MDMs infected with HIV-1/Ba-L; format: cell-based, human; settings: MDMs with GSH deficiency after infection with HIV-1/Ba-L
# Experimental: The intracellular GSH was assayed by means of the assay kit sold by Cayman. This method for assaying glutathione is an adaptation of that described by O. W. Griffith et al. (1980).
# The compound I-152 and its derivatives are prepared extemporaneously by being dissolved in dimethyl sulfoxide (DMSO) at the concentration of 100 mM. They are subsequently stored at −20° C. after having been diluted 10 fold in phosphate buffer (PBS).
# [4] = ratio of inhibiting concentrations, MDMs, HIV-1/Ba-L
smiles,measurement,setting,value
"CC(=O)N[C@@H](CS)C(=O)NCCSC(C)=O [I-152, N-(N-acetyl-L-cysteinyl)-S-acetylcysteamine]",EC50,"HIV-1/Ba-L; Human immunodeficiency virus 1, BAL, MDMs infected with 10 000 TCID50s HIV-1/Ba-L (m.o.i. 0.01), read-out: inhibiting concentration (50% effective dose)",50 µM
same,antiviral activity (in words),"HIV-1/Ba-L; MDMs infected with HIV-1/Ba-L, compounds dissolved in medium A",strong antiviral activity superior to that of NAC or of MEA
same,times more effective than MEA,HIV-1/Ba-L; [4],6 times
same,times more effective than NAC,HIV-1/Ba-L; [4],188 times
same,antiviral activity (in words),"HIV-1/Ba-L; second series, compounds dissolved in DMSO then diluted, MDMs, HIV-1/Ba-L",the most effective in inhibiting viral replication
same,viral replication (in words),HIV-1/Ba-L; 250 μM,ineffective
same,viral replication (in words),HIV-1/Ba-L; 500 μM,viral replication is extinguished
same,concentration of GSH (in words),GSH [1],increases the concentration of GSH
same,cytotoxicity (in words),PBMCs,not cytotoxic
same,cytotoxicity (in words),MDMs; 500 μM (10 times the 50% effective dose),not cytotoxic
same,cytotoxicity at antiviral doses (in words),MDMs; antiviral doses,not cytotoxic
same,times more active than NAC,[2]; from concentrations supplementing the culture medium giving equivalent glutathione,120 times
same,intracellular glutathione at high concentration (in words),"[2]; quiescent PBMCs, 250 μM",decrease
same,effect on intracellular level of glutathione (in words),"[2]; quiescent PBMCs, 24 h treatment",increases the intracellular level of glutathione
same,intracellular concentration of total glutathione,"[2]; quiescent PBMCs, dose 125 μM",2.64 ± 0.13 µM
same,regeneration of intracellular GSH level (in words),GSH [3],capable of regenerating an abnormally low intracellular level

# Reference: patent US6979747B2, “Antioxidants, preparation processes and their uses” (Centre National de la Recherche Scientifique (CNRS), priority 1999, dated 2005)
